PMC10114720

Tests used:
[1] = PDMS sheets cleaned by Soxhlet with ethyl acetate; batch shaking method with a mixture of all chemicals at several PDMS-mass to water-volume ratios and spiked levels; vials shaken on an orbital shaker at room temperature in the dark, sampled at two equilibration times; PDMS extracts and water quantified by LC-HRMS (Orbitrap); D from the slope of C_PDMS on C_w or their ratio; value is the mean over that pH's experiments (individual experiments in the SI's concentrations table), sd is the table's stdev; conditions: PDMS (polydimethylsiloxane silicone sheet), phosphate buffer at three target pH values (the paper's methods)
[2] = monoprotic acid or base: log K of the neutral species extrapolated from the linear regression of D on the neutral fraction (from pKa and pH; the paper's eq. for monoprotic IOCs), the slope giving K of the neutral species; replicates column holds the table's 95% confidence limits. PDMS sheets cleaned by Soxhlet with ethyl acetate; batch shaking method with a mixture of all chemicals at several PDMS-mass to water-volume ratios and spiked levels; vials shaken on an orbital shaker at room temperature in the dark, sampled at two equilibration times; PDMS extracts and water quantified by LC-HRMS (Orbitrap); D from the slope of C_PDMS on C_w or their ratio; conditions: PDMS (polydimethylsiloxane silicone sheet); phosphate buffer at three target pH values (the paper's methods)

Structure (SMILES)	log D PDMS/w (apparent distribution ratio at the stated pH) ([1]; pH 3)	log D PDMS/w (apparent distribution ratio at the stated pH) ([1]; pH 7.4)	log D PDMS/w (apparent distribution ratio at the stated pH) ([1]; pH 11.5)	log K PDMS/w (neutral species) [2]
CO/C=C(/C(=O)O)c1ccccc1Oc1cc(Oc2ccccc2C#N)ncn1	1.162 log units; D and K as the pape	-0.4633 log units; D and K as the pape	-0.695 log units; D and K as the pape	1.355 log units; D and K as the pape
c1ccc2sc(N3CCOCC3)nc2c1	1.704 log units; D and K as the pape	1.897 log units; D and K as the pape	1.881 log units; D and K as the pape	2.029 log units; D and K as the pape
c1ccc2[nH]nnc2c1	0.055 log units; D and K as the pape	0.06625 log units; D and K as the pape	–	0.1268 log units; D and K as the pape
CCC1(c2ccccc2)C(=O)NCNC1=O	1.032 log units; D and K as the pape	–	–	1.057 log units; D and K as the pape
Oc1c(Br)cc(Cl)cc1Cc1cc(Cl)cc(Br)c1O	3.724 log units; D and K as the pape	2.256 log units; D and K as the pape	0.555 log units; D and K as the pape	–
c1ccc2c(c1)[nH]c1ccncc12	-0.445 log units; D and K as the pape	2.315 log units; D and K as the pape	2.443 log units; D and K as the pape	2.458 log units; D and K as the pape
Cc1nccn1CC1CCc2c(c3ccccc3n2C)C1=O (stereo not drawn)	-0.92 log units; D and K as the pape	1.409 log units; D and K as the pape	2.124 log units; D and K as the pape	2.203 log units; D and K as the pape
CCN(CC)c1ccc2c(C)cc(=O)oc2c1	2.535 log units; D and K as the pape	2.797 log units; D and K as the pape	2.809 log units; D and K as the pape	2.913 log units; D and K as the pape
Clc1ccc(COC(Cn2ccnc2)c2ccc(Cl)cc2Cl)c(Cl)c1 (stereo not drawn)	2.616 log units; D and K as the pape	4.581 log units; D and K as the pape	4.53 log units; D and K as the pape	4.599 log units; D and K as the pape
CCc1cccc(C)c1N(C(=O)C(=O)O)C(C)C(=O)O (stereo not drawn)	1.878 log units; D and K as the pape	3.06 log units; D and K as the pape	3.008 log units; D and K as the pape	–
NC(=O)/N=C1\SCCN1Cc1ccc(Cl)nc1	0.2411 log units; D and K as the pape	0.3692 log units; D and K as the pape	0.4142 log units; D and K as the pape	0.4822 log units; D and K as the pape
Nc1nc2ccccc2[nH]1	–	-0.58 log units; D and K as the pape	-0.51 log units; D and K as the pape	–
CCNC(=O)[C@@H](C)OC(=O)Nc1ccccc1	0.635 log units; D and K as the pape	0.5527 log units; D and K as the pape	0.7717 log units; D and K as the pape	-0.07551 log units; D and K as the pape
CC(C)C(=O)Nc1ccc([N+](=O)[O-])c(C(F)(F)F)c1	1.476 log units; D and K as the pape	1.423 log units; D and K as the pape	–	1.525 log units; D and K as the pape
c1ccc(-c2ccc(C(c3ccccc3)n3ccnc3)cc2)cc1 (stereo not drawn)	2.122 log units; D and K as the pape	4.209 log units; D and K as the pape	4.169 log units; D and K as the pape	4.281 log units; D and K as the pape
NC12CC3CC(CC(C3)C1)C2	–	–	–	2.916 log units; D and K as the pape
Clc1cccc(Cl)c1NC1=NCCN1	0.07 log units; D and K as the pape	1.56 log units; D and K as the pape	–	2.618 log units; D and K as the pape
O=C(Nc1ccc(Cl)c(Cl)c1)c1cc(Cl)cc(Cl)c1O	–	–	–	3.883 log units; D and K as the pape
CNC(=O)Oc1cccc2ccccc12	–	–	–	1.106 log units; D and K as the pape

The next lines start with the values.

log D PDMS/w (apparent distribution ratio at the stated pH) ([1]; pH 3)	log D PDMS/w (apparent distribution ratio at the stated pH) ([1]; pH 7.4)	log D PDMS/w (apparent distribution ratio at the stated pH) ([1]; pH 11.5)	log K PDMS/w (neutral species) [2]	Structure (SMILES)
0.51 log units; D and K as the pape	0.4188 log units; D and K as the pape	0.4886 log units; D and K as the pape	0.5936 log units; D and K as the pape	CCNS(=O)(=O)c1ccccc1C
1.351 log units; D and K as the pape	1.251 log units; D and K as the pape	1.334 log units; D and K as the pape	1.406 log units; D and K as the pape	O=c1c2ccccc2[nH]c2ccccc12
1.11 log units; D and K as the pape	1.067 log units; D and K as the pape	1.073 log units; D and K as the pape	1.285 log units; D and K as the pape	CC(C)(C)c1ccc(S(N)(=O)=O)cc1
0.632 log units; D and K as the pape	0.2933 log units; D and K as the pape	–	–	N[C@@H](Cc1cc(I)c(Oc2cc(I)c(O)c(I)c2)c(I)c1)C(=O)O
0.8893 log units; D and K as the pape	-0.01 log units; D and K as the pape	-0.67 log units; D and K as the pape	1.068 log units; D and K as the pape	CCCCc1nc(Cl)c(CO)n1Cc1ccc(-c2ccccc2-c2nn[nH]n2)cc1
0.945 log units; D and K as the pape	2.315 log units; D and K as the pape	2.167 log units; D and K as the pape	2.366 log units; D and K as the pape	c1ccc2nc3ccccc3cc2c1
1.465 log units; D and K as the pape	1.732 log units; D and K as the pape	1.506 log units; D and K as the pape	–	COC(=O)Nc1nc2ccc(C(=O)c3ccccc3)cc2[nH]1
1.914 log units; D and K as the pape	1.863 log units; D and K as the pape	1.825 log units; D and K as the pape	2.015 log units; D and K as the pape	CCNc1ccc2c(C)cc(=O)oc2c1
0.28 log units; D and K as the pape	-0.003333 log units; D and K as the pape	–	–	COCCc1ccc(OCC(O)CNC(C)C)cc1 (stereo not drawn)
0.7792 log units; D and K as the pape	2.087 log units; D and K as the pape	-0.02556 log units; D and K as the pape	–	CCc1ccc(CCOc2ccc(CC3SC(=O)NC3=O)cc2)nc1 (stereo not drawn)
-0.02167 log units; D and K as the pape	–	–	0.05461 log units; D and K as the pape	O=C(O)CCC(=O)c1ccc(F)cc1
1.054 log units; D and K as the pape	-0.64 log units; D and K as the pape	–	1.311 log units; D and K as the pape	CC(C)(Oc1ccc(CCNC(=O)c2ccc(Cl)cc2)cc1)C(=O)O
-0.855 log units; D and K as the pape	-0.2383 log units; D and K as the pape	–	–	CC(CCc1ccccc1)NCC(O)c1ccc(O)c(C(N)=O)c1 (stereo not drawn)
4.46 log units; D and K as the pape	2.944 log units; D and K as the pape	–	–	CC(C)(c1cc(Br)c(O)c(Br)c1)c1cc(Br)c(O)c(Br)c1
–	–	–	1.867 log units; D and K as the pape	O=C(O)Cc1ccccc1Nc1c(Cl)cccc1Cl
